{"source": "patent US20230278972A1", "about": "“SUBSTITUTED HALOALKYL SULFONANILIDE HERBICIDES” (FMC Corporation, priority 2020, published 2023)", "type_in_all_cases": "in vivo", "key": {"[1]": {"tested_on": "Foxtail, Giant (giant foxtail, Setaria faberi)", "experiment": "Test A1 preemergence, Foxtail, Giant", "outline": "(§1)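 Both timings started from seed in a loam-sand blend. Preemergence pots got a directed soil application immediately; postemergence pots were sprayed when seedlings had one or two leaves and stood 2–10 cm. Each compound was prepared in a non-phytotoxic solvent plus surfactant.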"}, "[2]": {"tested_on": "Oat, Wild (wild oat, Avena fatua)", "experiment": "Test A1 preemergence, Oat, Wild", "outline": "as §1"}, "[3]": {"tested_on": "ragweed (common ragweed, Ambrosia artemisiifolia)", "experiment": "Test A1 preemergence, ragweed", "outline": "as §1"}, "[4]": {"tested_on": "wheat (Triticum aestivum)", "experiment": "Test A1 postemergence, wheat", "details": "Postemergence", "outline": "(§2)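 Herbicidal response was scored on plants treated either preemergence, by directed spray onto soil of a loam–sand blend after sowing, or postemergence on potted plants at the one- to two-leaf stage, 2–10 cm high. Test chemicals were carried in a non-phytotoxic solvent mix with surfactant.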"}, "[5]": {"tested_on": "Pigweed, Palmer (palmer amaranth, palmer pigweed, Amaranthus palmeri)", "experiment": "Test A1 postemergence, Pigweed, Palmer", "details": "Postemergence", "outline": "as §2"}, "[6]": {"tested_on": "barnyardgrass (Echinochloa crus-galli)", "experiment": "Test B1 flooded paddy test, barnyardgrass", "details": "250 g ai/ha, Flood, applied to paddy water, 2-leaf stage, visually evaluated after 10 to 14 days", "excerpt": "(§3) A dash (-) response means no test result."}, "[7]": {"tested_on": "Foxtail, Giant (giant foxtail, Setaria faberi)", "experiment": "Test A1 postemergence, Foxtail, Giant", "details": "Postemergence", "outline": "as §2"}, "[8]": {"tested_on": "kochia (Bassia scoparia)", "experiment": "Test A1 postemergence, kochia", "details": "Postemergence", "outline": "as §2"}, "[9]": {"tested_on": "rice (Oryza sativa)", "experiment": "Test B1 flooded paddy test, rice", "details": "250 g ai/ha, Flood, applied to paddy water, 2-leaf stage, visually evaluated after 10 to 14 days", "excerpt": "as §3"}, "[10]": {"details": "31 g ai/ha, 0 to 100 scale (0 no effect, 100 complete control)"}, "[11]": {"details": "125 g ai/ha, 0 to 100 scale, 0 no effect, 100 complete control"}, "[12]": {"details": "31 g ai/ha, 0 to 100 scale (0 no effect, 100 complete control), 10 days"}}, "data": [{"smiles": "Cc1c(C(=O)N2CCC(F)CC2)cc(N(COC(=O)C(C)(C)C)S(=O)(=O)C(F)(F)F)c(C)c1C", "note": "[Compound 361]", "values": [{"measurement": "Plant response rating, Foxtail, Giant", "setting": "[1]; [10]", "value": 0}, {"measurement": "Plant response rating, Foxtail, Giant", "setting": "[1]; [11]", "value": 90}, {"measurement": "Plant response rating, Oat, Wild", "setting": "[2]; [10]", "value": 0}, {"measurement": "Plant response rating, Oat, Wild", "setting": "[2]; [11]", "value": 0}, {"measurement": "Plant response rating, Ragweed", "setting": "[3]; [10]", "value": 20}, {"measurement": "Plant response rating, Ragweed", "setting": "[3]; [11]", "value": 90}, {"measurement": "Plant response rating, Wheat", "setting": "[4]; [12]", "value": 0}, {"measurement": "Plant response rating, Wheat", "setting": "[4]; 125 g ai/ha, 0 to 100 scale", "value": 20}, {"measurement": "Plant response rating, Pigweed, Palmer", "setting": "[5]; [12]", "value": 10}, {"measurement": "Plant response rating, Pigweed, Palmer", "setting": "[5]; 125 g ai/ha, 0 to 100 scale", "value": 20}, {"measurement": "Plant response rating, Barnyardgrass (0 to 100 scale, 0 is no effect, 100 is complete control)", "setting": "[6]", "value": 95}, {"measurement": "Plant response rating, Foxtail, Giant", "setting": "[7]; [12]", "value": 10}, {"measurement": "Plant response rating, Foxtail, Giant", "setting": "[7]; 125 g ai/ha, 0 to 100 scale", "value": 50}, {"measurement": "Plant response rating, Kochia", "setting": "[8]; [12]", "value": 0}, {"measurement": "Plant response rating, Kochia", "setting": "[8]; 125 g ai/ha, 0 to 100 scale", "value": 50}, {"measurement": "Plant response rating, Rice (0 to 100 scale, 0 is no effect, 100 is complete control)", "setting": "[9]", "value": 35}]}, {"smiles": "Cc1cc(C)c(N(COC(=O)C(C)(C)C)S(=O)(=O)C(F)(F)F)cc1C(=O)N1CCOCC1", "note": "[Compound 362]", "values": [{"measurement": "Plant response rating, Foxtail, Giant", "setting": "[1]; [10]", "value": 20}, {"measurement": "Plant response rating, Foxtail, Giant", "setting": "[1]; [11]", "value": 90}, {"measurement": "Plant response rating, Oat, Wild", "setting": "[2]; [10]", "value": 0}, {"measurement": "Plant response rating, Oat, Wild", "setting": "[2]; [11]", "value": 30}, {"measurement": "Plant response rating, Ragweed", "setting": "[3]; [10]", "value": 0}, {"measurement": "Plant response rating, Ragweed", "setting": "[3]; [11]", "value": 50}, {"measurement": "Plant response rating, Wheat", "setting": "[4]; [12]", "value": 40}, {"measurement": "Plant response rating, Wheat", "setting": "[4]; 125 g ai/ha, 0 to 100 scale", "value": 60}, {"measurement": "Plant response rating, Pigweed, Palmer", "setting": "[5]; [12]", "value": 10}, {"measurement": "Plant response rating, Pigweed, Palmer", "setting": "[5]; 125 g ai/ha, 0 to 100 scale", "value": 30}, {"measurement": "Plant response rating, Barnyardgrass (0 to 100 scale, 0 is no effect, 100 is complete control)", "setting": "[6]", "value": 95}, {"measurement": "Plant response rating, Foxtail, Giant", "setting": "[7]; [12]", "value": 20}, {"measurement": "Plant response rating, Foxtail, Giant", "setting": "[7]; 125 g ai/ha, 0 to 100 scale", "value": 90}, {"measurement": "Plant response rating, Kochia", "setting": "[8]; [12]", "value": 50}, {"measurement": "Plant response rating, Kochia", "setting": "[8]; 125 g ai/ha, 0 to 100 scale", "value": 80}, {"measurement": "Plant response rating, Rice (0 to 100 scale, 0 is no effect, 100 is complete control)", "setting": "[9]", "value": 10}]}, {"smiles": "CCOC(=O)N(c1cc(C(=O)N2CCOCC2)c(C)cc1C)S(=O)(=O)C(F)(F)F", "note": "[Compound 363]", "values": [{"measurement": "Plant response rating, Foxtail, Giant", "setting": "[1]; [10]", "value": 90}, {"measurement": "Plant response rating, Foxtail, Giant", "setting": "[1]; [11]", "value": 100}, {"measurement": "Plant response rating, Oat, Wild", "setting": "[2]; [10]", "value": 30}, {"measurement": "Plant response rating, Oat, Wild", "setting": "[2]; [11]", "value": 70}, {"measurement": "Plant response rating, Ragweed", "setting": "[3]; [10]", "value": 20}, {"measurement": "Plant response rating, Ragweed", "setting": "[3]; [11]", "value": 80}, {"measurement": "Plant response rating, Wheat", "setting": "[4]; [12]", "value": 40}, {"measurement": "Plant response rating, Wheat", "setting": "[4]; 125 g ai/ha, 0 to 100 scale", "value": 60}, {"measurement": "Plant response rating, Pigweed, Palmer", "setting": "[5]; [12]", "value": 0}, {"measurement": "Plant response rating, Pigweed, Palmer", "setting": "[5]; 125 g ai/ha, 0 to 100 scale", "value": 10}, {"measurement": "Plant response rating, Barnyardgrass (0 to 100 scale, 0 is no effect, 100 is complete control)", "setting": "[6]", "value": 50}, {"measurement": "Plant response rating, Foxtail, Giant", "setting": "[7]; [12]", "value": 30}, {"measurement": "Plant response rating, Foxtail, Giant", "setting": "[7]; 125 g ai/ha, 0 to 100 scale", "value": 90}, {"measurement": "Plant response rating, Kochia", "setting": "[8]; [12]", "value": 50}, {"measurement": "Plant response rating, Kochia", "setting": "[8]; 125 g ai/ha, 0 to 100 scale", "value": 70}, {"measurement": "Plant response rating, Rice (0 to 100 scale, 0 is no effect, 100 is complete control)", "setting": "[9]", "value": 25}]}, {"smiles": "Cc1cc(C)c(N(COC(=O)C(C)(C)C)S(=O)(=O)C(F)(F)F)cc1C(=O)N1CCC(c2ccccc2)CC1", "note": "[Compound 364]", "values": [{"measurement": "Plant response rating, Foxtail, Giant", "setting": "[1]; [10]", "value": 0}, {"measurement": "Plant response rating, Foxtail, Giant", "setting": "[1]; [11]", "value": 0}, {"measurement": "Plant response rating, Oat, Wild", "setting": "[2]; [10]", "value": 0}, {"measurement": "Plant response rating, Oat, Wild", "setting": "[2]; [11]", "value": 0}, {"measurement": "Plant response rating, Ragweed", "setting": "[3]; [10]", "value": 0}, {"measurement": "Plant response rating, Ragweed", "setting": "[3]; [11]", "value": 0}, {"measurement": "Plant response rating, Wheat", "setting": "[4]; [12]", "value": 0}, {"measurement": "Plant response rating, Wheat", "setting": "[4]; 125 g ai/ha, 0 to 100 scale", "value": 0}, {"measurement": "Plant response rating, Pigweed, Palmer", "setting": "[5]; [12]", "value": 0}, {"measurement": "Plant response rating, Pigweed, Palmer", "setting": "[5]; 125 g ai/ha, 0 to 100 scale", "value": 0}, {"measurement": "Plant response rating, Barnyardgrass (0 to 100 scale, 0 is no effect, 100 is complete control)", "setting": "[6]", "value": 0}, {"measurement": "Plant response rating, Foxtail, Giant", "setting": "[7]; [12]", "value": 0}, {"measurement": "Plant response rating, Foxtail, Giant", "setting": "[7]; 125 g ai/ha, 0 to 100 scale", "value": 20}, {"measurement": "Plant response rating, Kochia", "setting": "[8]; [12]", "value": 0}, {"measurement": "Plant response rating, Kochia", "setting": "[8]; 125 g ai/ha, 0 to 100 scale", "value": 30}, {"measurement": "Plant response rating, Rice (0 to 100 scale, 0 is no effect, 100 is complete control)", "setting": "[9]", "value": 0}]}, {"smiles": "CCOC(=O)N(c1cc(C(=O)N2CCC(c3ccccc3)CC2)c(C)cc1C)S(=O)(=O)C(F)(F)F", "note": "[Compound 365]", "values": [{"measurement": "Plant response rating, Foxtail, Giant", "setting": "[1]; [10]", "value": 0}, {"measurement": "Plant response rating, Foxtail, Giant", "setting": "[1]; [11]", "value": 30}, {"measurement": "Plant response rating, Oat, Wild", "setting": "[2]; [10]", "value": 0}, {"measurement": "Plant response rating, Oat, Wild", "setting": "[2]; [11]", "value": 0}, {"measurement": "Plant response rating, Ragweed", "setting": "[3]; [10]", "value": 0}, {"measurement": "Plant response rating, Ragweed", "setting": "[3]; [11]", "value": 20}, {"measurement": "Plant response rating, Wheat", "setting": "[4]; [12]", "value": 0}, {"measurement": "Plant response rating, Wheat", "setting": "[4]; 125 g ai/ha, 0 to 100 scale", "value": 20}, {"measurement": "Plant response rating, Pigweed, Palmer", "setting": "[5]; [12]", "value": 0}, {"measurement": "Plant response rating, Pigweed, Palmer", "setting": "[5]; 125 g ai/ha, 0 to 100 scale", "value": 0}, {"measurement": "Plant response rating, Barnyardgrass (0 to 100 scale, 0 is no effect, 100 is complete control)", "setting": "[6]", "value": 15}, {"measurement": "Plant response rating, Foxtail, Giant", "setting": "[7]; [12]", "value": 0}, {"measurement": "Plant response rating, Foxtail, Giant", "setting": "[7]; 125 g ai/ha, 0 to 100 scale", "value": 0}, {"measurement": "Plant response rating, Kochia", "setting": "[8]; [12]", "value": 10}, {"measurement": "Plant response rating, Kochia", "setting": "[8]; 125 g ai/ha, 0 to 100 scale", "value": 40}, {"measurement": "Plant response rating, Rice (0 to 100 scale, 0 is no effect, 100 is complete control)", "setting": "[9]", "value": 15}]}]}
